Counter-ions that a name gives are not always drawn.
Assay: Aqueous solubility of amorphous vs crystalline lercanidipine hydrochloride
Format: physicochemical
Details: water, stirring at 27-28° C. for 24 hr, filtered, HPLC
Experimental: The aqueous solubility of amorphous lercanidipine hydrochloride, was compared to the solubility of crystalline lercanidipine hydrochloride. The solubility of the respective samples was determined by suspending 20-30 mg of sample test was in 10 mL water and stirring at 27-28° C. for 24 hr. The sample was then filtered through a PVDF filter (0.2 micron) and the solution diluted with acetonitrile and analyzed by HPLC.

Q: With `COC(=O)C1=C(C)NC(C)=C(C(=O)OC(C)(C)CN(C)CCC(c2ccccc2)c2ccccc2)C1c1cccc([N+](=O)[O-])c1` (stereo not drawn) [Amorphous lercanidipine HCl (Example 2), methyl 1,1,N-trimethyl-N-(3,3-diphenylpropyl)-2-aminoethyl 1,4-dihydro-2,6-dimethyl-4-(3-nitrophenyl)pyridine-3,5-dicarboxylate] as the compound, how does the SOLUBILITY read?
A: Its SOLUBILITY is 1.5 mg/L.

Q: With `COC(=O)C1=C(C)NC(C)=C(C(=O)OC(C)(C)CN(C)CCC(c2ccccc2)c2ccccc2)C1c1cccc([N+](=O)[O-])c1` (stereo not drawn) [Amorphous lercanidipine HCl (Example 1), methyl 1,1,N-trimethyl-N-(3,3-diphenylpropyl)-2-aminoethyl 1,4-dihydro-2,6-dimethyl-4-(3-nitrophenyl)pyridine-3,5-dicarboxylate] as the compound, how does the SOLUBILITY read?
A: Its SOLUBILITY is 1.5 mg/L.

Q: For `COC(=O)C1=C(C)NC(C)=C(C(=O)OC(C)(C)CN(C)CCC(c2ccccc2)c2ccccc2)C1c1cccc([N+](=O)[O-])c1` (stereo not drawn) [Crystalline lercanidipine HCl (Form I), methyl 1,1,N-trimethyl-N-(3,3-diphenylpropyl)-2-aminoethyl 1,4-dihydro-2,6-dimethyl-4-(3-nitrophenyl)pyridine-3,5-dicarboxylate, reference compound], which SOLUBILITY is on record?
A: The SOLUBILITY was 0.65 mg/L.
